Reference: patent US20200276187A1, “SYSTEMS AND METHODS FOR A[…]-INDUCED EUPHORIA” (Purdue Pharma L.P., priority 2014, published 2020)

System: rats
Assay: Conditioned Place Preference (CPP) animal model of opioid-induced euphoria
Settings: subcutaneous, 6 conditioning days of 30 min sessions, preference assessed on day 8, time in drug-paired minus vehicle-paired chamber
Experimental: It was administered in a volume of 2 ml/kg. […] The oxycodone was administered as the hydrochloride salt form and was dissolved in saline. The subcutaneous volume for each was 2 ml/kg.
For this Example, a 6 day unbiased, counterbalanced paradigm was employed. Innate preference was tested on day 1 (preconditioning day or baseline). On this day, naïve animals (rats) had free access to all three compartments for 30 minutes. The time spent in each chamber was automatically recorded. For conditioning sessions (days 2-7), animals were randomly assigned to compartment pairings for thirty minutes. During the first conditioning session (day 2), animals were randomly divided. […] Control animals received vehicle plus vehicle during each pairing. This conditioning procedure was replicated over five more days (thirty minute sessions for 6 total conditioning days). On day 8, preference was assessed. Each animal was allowed to roam freely about all three compartments for 30 minutes. The removable doors remained opened. The time spent in each compartment was automatically recorded. Conditioned Place Preference (“CPP”) (seconds) is represented as the difference between the time spent in the drug-paired and vehicle-paired chambers on the test day and is indicative of the rewarding properties associated with the compound(s) studied.

COc1ccc2c3c1O[C@H]1C(=O)CC[C@@]4(O)[C@@H](C2)N(C)CC[C@]314 [oxycodone]
Conditioned Place Preference (CPP) as compared to vehicle treated controls: produces a statistically significant CPP
